Experimental data from ChEMBL document CHEMBL5506073, “Discovery of Novel Ortho-Aminophenol Derivatives Targeting Lipid Peroxidation with Potent Antiferroptotic Activities” (J Med Chem, 2024).
Calls of active or inactive are those of the source. The calls are words filed in the database; no cut-off is given here.

Key:
HT-1080 [1] = assay: Inhibition of RSL3-induced ferroptosis in human HT-1080 cells assessed as cell viability incubated for 24 hrs by CCK8 assay; assay type: functional, cell-based; settings: for EC50: HT-1080, 24 h
[2] = Antioxidant activity assessed as DPPH radical scavenging activity at 10 uM incubated for 30 mins by absorbance based assay; assay type: functional
HT-1080 [3] = assay: Inhibition of RSL3-induced ferroptosis in human HT-1080 cells assessed as cell viability at 0.5 uM incubated for 24 hrs by CCK8 assay; assay type: functional, cell-based
Mus musculus [4] = assay: Protection against APAP-induced acute liver injury in overnight fasted C57BL/6 mouse model assessed as decrease in plasma AST level at 10 mg/kg, ip administered 1 hr prior to APAP treatment measured after 12 hrs post-APAP treatment under continuous fasting condition; assay type: functional, organism-based; settings: time 13.0 hrs
Mus musculus [5] = assay: Protection against APAP-induced acute liver injury in overnight fasted C57BL/6 mouse model assessed as decrease in plasma ALT level at 10 mg/kg, ip administered 1 hr prior to APAP treatment measured after 12 hrs post-APAP treatment under continuous fasting condition; assay type: functional, organism-based; settings: time 13.0 hrs
Mus musculus [6] = assay: Protection against APAP-induced acute liver injury in overnight fasted C57BL/6 mouse model assessed as reduction in 4-HNE formation in liver at 10 mg/kg, ip administered 1 hr prior to APAP treatment measured after 12 hrs post-APAP treatment under continuous fasting condition by IHC analysis; assay type: functional, organism-based; settings: time 13.0 hrs
HT-1080 [7] = assay: Inhibition of RSL3-induced ferroptosis in human HT-1080 cells assessed as cell viability at 200 nM incubated for 24 hrs by CCK8 assay; assay type: functional, cell-based
HKC [8] = assay: Inhibition of RSL3-induced ferroptosis in human HKC cells assessed as cell viability at 200 nM incubated for 24 hrs by CCK8 assay; assay type: functional, cell-based
HK-2 [9] = assay: Inhibition of RSL3-induced ferroptosis in human HK-2 cells assessed as cell viability at 200 nM incubated for 24 hrs by CCK8 assay; assay type: functional, cell-based
KHOS/NP [10] = assay: Inhibition of RSL3-induced ferroptosis in human KHOS/NP cells assessed as cell viability at 200 nM incubated for 24 hrs by CCK8 assay; assay type: functional, cell-based
SW480 [11] = assay: Inhibition of RSL3-induced ferroptosis in human SW480 cells assessed as cell viability at 200 nM incubated for 24 hrs by CCK8 assay; assay type: functional, cell-based
HTR-8/SVneo [12] = assay: Inhibition of RSL3-induced ferroptosis in human HTR-8/SVneo cells assessed as cell viability at 200 nM incubated for 24 hrs by CCK8 assay; assay type: functional, cell-based
HT-1080 [13] = assay: Inhibition of FIN56-induced ferroptosis in human HT-1080 cells assessed as cell viability at 200 nM incubated for 24 hrs by CCK8 assay; assay type: functional, cell-based
HKC [14] = assay: Inhibition of FIN56-induced ferroptosis in human HKC cells assessed as cell viability at 200 nM incubated for 24 hrs by CCK8 assay; assay type: functional, cell-based
HK-2 [15] = assay: Inhibition of FIN56-induced ferroptosis in human HK-2 cells assessed as cell viability at 200 nM incubated for 24 hrs by CCK8 assay; assay type: functional, cell-based
KHOS/NP [16] = assay: Inhibition of FIN56-induced ferroptosis in human KHOS/NP cells assessed as cell viability at 200 nM incubated for 24 hrs by CCK8 assay; assay type: functional, cell-based
SW480 [17] = assay: Inhibition of FIN56-induced ferroptosis in human SW480 cells assessed as cell viability at 200 nM incubated for 24 hrs by CCK8 assay; assay type: functional, cell-based
HTR-8/SVneo [18] = assay: Inhibition of FIN56-induced ferroptosis in human HTR-8/SVneo cells assessed as cell viability at 200 nM incubated for 24 hrs by CCK8 assay; assay type: functional, cell-based
HT-1080 [19] = assay: Inhibition of ferroptosis in human HT-1080 cells assessed as reversal of RSL3-induced cell shrinkage; assay type: functional, cell-based
HT-1080 [20] = assay: Inhibition of ferroptosis in human HT-1080 cells assessed as reversal of RSL3-induced swelling; assay type: functional, cell-based
HT-1080 [21] = assay: Inhibition of ferroptosis in human HT-1080 cells assessed as reversal of RSL3-induced membrane rupture; assay type: functional, cell-based
HT-1080 [22] = assay: Inhibition of ferroptosis in human HT-1080 cells assessed as reversal of RSL3-induced normal morphological loss; assay type: functional, cell-based
HT-1080 [23] = assay: Inhibition of RSL3-induced lipid peroxidation in human HT-1080 cells assessed as reduction in green fluorescence by C11-BODIPY581/591 probe based analysis; assay type: functional, cell-based
HT-1080 [24] = assay: Inhibition of RSL3-induced lipid peroxidation in human HT-1080 cells assessed as reduction in MDA adduct accumulation by ELISA; assay type: functional, cell-based
HT-1080 [25] = assay: Effect on lipid metabolism in human HT-1080 cells assessed as change in ACSL4 mRNA level by qRT-PCR analysis; assay type: functional, cell-based
HT-1080 [26] = assay: Effect on lipid metabolism in human HT-1080 cells assessed as change in ALOX15 mRNA level by qRT-PCR analysis; assay type: functional, cell-based
HT-1080 [27] = assay: Effect on lipid metabolism in human HT-1080 cells assessed as change in COX2 mRNA level by qRT-PCR analysis; assay type: functional, cell-based
HT-1080 [28] = assay: Effect on glutathione metabolic pathway in human HT-1080 cells assessed as change in GPX4 mRNA level by qRT-PCR analysis; assay type: functional, cell-based
HT-1080 [29] = assay: Effect on glutathione metabolic pathway in human HT-1080 cells assessed as change in SLC7A11 mRNA level by qRT-PCR analysis; assay type: functional, cell-based
HT-1080 [30] = assay: Effect on iron metabolism in human HT-1080 cells assessed as change in DMT1 mRNA level by qRT-PCR analysis; assay type: functional, cell-based
HT-1080 [31] = assay: Effect on iron metabolism in human HT-1080 cells assessed as change in TFRC mRNA level by qRT-PCR analysis; assay type: functional, cell-based
HT-1080 [32] = assay: Effect on iron metabolism in human HT-1080 cells assessed as change in FTH1 mRNA level by qRT-PCR analysis; assay type: functional, cell-based
[33] = Antioxidant activity assessed as DPPH radical scavenging activity at 20 uM incubated for 30 mins by absorbance based assay; assay type: functional
Mus musculus [34] = assay: Protection against kidney ischemia-reperfusion injury in C57BL/6 mouse model assessed as decrease in serum creatinine level at 10 mg/kg, ip administered twice 1 hr prior to ischemia onset measured after 24 hrs post-ischemia; assay type: functional, organism-based; settings: time 25.0 hrs
Mus musculus [35] = assay: Protection against kidney ischemia-reperfusion injury in C57BL/6 mouse model assessed as decrease in BUN level at 10 mg/kg, ip administered twice 1 hr prior to ischemia onset measured after 24 hrs post-ischemia; assay type: functional, organism-based; settings: time 25.0 hrs
Mus musculus [36] = assay: Protection against kidney ischemia-reperfusion injury in C57BL/6 mouse model assessed as decrease in renal tubule dilation at 10 mg/kg, ip administered twice 1 hr prior to ischemia onset measured after 24 hrs post-ischemia by H and E staining based analysis; assay type: functional, organism-based; settings: time 25.0 hrs
Mus musculus [37] = assay: Protection against kidney ischemia-reperfusion injury in C57BL/6 mouse model assessed as decrease in brush edges loss in kidney at 10 mg/kg, ip administered twice 1 hr prior to ischemia onset measured after 24 hrs post-ischemia by H and E staining based analysis; assay type: functional, organism-based; settings: time 25.0 hrs
Mus musculus [38] = assay: Protection against kidney ischemia-reperfusion injury in C57BL/6 mouse model assessed as decrease in cytoplasmic vacuoles in kidney at 10 mg/kg, ip administered twice 1 hr prior to ischemia onset measured after 24 hrs post-ischemia by H and E staining based analysis; assay type: functional, organism-based; settings: time 25.0 hrs
Mus musculus [39] = assay: Protection against kidney ischemia-reperfusion injury in C57BL/6 mouse model assessed as decrease in KIM-1 level in kidney at 10 mg/kg, ip administered twice 1 hr prior to ischemia onset measured after 24 hrs post-ischemia by IHC analysis; assay type: functional, organism-based; settings: time 25.0 hrs
Mus musculus [40] = assay: Protection against APAP-induced acute liver injury in overnight fasted C57BL/6 mouse model assessed as normal pathology of liver at 10 mg/kg, ip administered 1 hr prior to APAP treatment measured after 12 hrs post-APAP treatment under continuous fasting condition by H and E staining based analysis; assay type: functional, organism-based; settings: time 13.0 hrs
Mus musculus [41] = assay: Protection against APAP-induced acute liver injury in overnight fasted C57BL/6 mouse model assessed as reversal of native liver architecture at 10 mg/kg, ip administered 1 hr prior to APAP treatment measured after 12 hrs post-APAP treatment under continuous fasting condition by H and E staining based analysis; assay type: functional, organism-based; settings: time 13.0 hrs
Mus musculus [42] = assay: Protection against APAP-induced acute liver injury in overnight fasted C57BL/6 mouse model assessed as reduction in necrotic areas of liver at 10 mg/kg, ip administered 1 hr prior to APAP treatment measured after 12 hrs post-APAP treatment under continuous fasting condition by H and E staining based analysis; assay type: functional, organism-based; settings: time 13.0 hrs

Nc1c(O)cccc1-c1nnc(SCc2ccc3ccccc3c2)o1
EC50 (HT-1080 [1]): 603 nM

CCCCOC(=O)c1cccc(O)c1N
EC50 (HT-1080 [1]): 385 nM
Activity [2]: Active
inhibition (HT-1080 [3]): Active

CC(C)OC(=O)c1cccc(O)c1N
EC50 (HT-1080 [1]): 388 nM
Activity [2]: Active
inhibition (HT-1080 [3]): Active

COC(=O)c1cccc(O)c1N
inhibition (HT-1080 [1]): Dose-Dependent Effect
EC50 (HT-1080 [1]): 526 nM

Cc1ccc(/C=N/NC(=O)c2cccc(O)c2N)cc1
EC50 (HT-1080 [1]): 2620 nM

CCOC(=O)c1ccc(NC2CCCCC2)c(N)c1
EC50 (HT-1080 [1]): 203 nM

NNC(=O)c1cccc(O)c1N
EC50 (HT-1080 [1]): > 1000 nM

COc1ccc(/C=N/NC(=O)c2cccc(O)c2N)cc1
Activity (Mus musculus [4]): Active
Activity (Mus musculus [5]): Active
Activity (Mus musculus [6]): Active
EC50 (HT-1080 [1]): 40.5 nM
inhibition (HT-1080 [7]): Active
inhibition (HKC [8]): Active
inhibition (HK-2 [9]): Active
inhibition (KHOS/NP [10]): Active
inhibition (SW480 [11]): Active
inhibition (HTR-8/SVneo [12]): Active
inhibition (HT-1080 [13]): Active
inhibition (HKC [14]): Active
inhibition (HK-2 [15]): Active
inhibition (KHOS/NP [16]): Active
inhibition (SW480 [17]): Active
inhibition (HTR-8/SVneo [18]): Active
inhibition (HT-1080 [19]): Active
inhibition (HT-1080 [20]): Active
inhibition (HT-1080 [21]): Active
inhibition (HT-1080 [22]): Active
inhibition (HT-1080 [23]): Active
inhibition (HT-1080 [24]): Active
Activity (HT-1080 [25]): inactive
Activity (HT-1080 [26]): inactive
Activity (HT-1080 [27]): inactive
Activity (HT-1080 [28]): inactive
Activity (HT-1080 [29]): inactive
Activity (HT-1080 [30]): inactive
Activity (HT-1080 [31]): inactive
Activity (HT-1080 [32]): inactive
Activity [33]: Active
Activity (Mus musculus [34]): Active
Activity (Mus musculus [35]): Active
Activity (Mus musculus [36]): Active
Activity (Mus musculus [37]): Active
Activity (Mus musculus [38]): Active
Activity (Mus musculus [39]): Active
Activity (Mus musculus [40]): Active
Activity (Mus musculus [41]): Active
Activity (Mus musculus [42]): Active

Nc1c(O)cccc1-c1nnc(S)o1
EC50 (HT-1080 [1]): 366 nM

Cn1c(-c2cccc(O)c2N)nc2ccccc21
EC50 (HT-1080 [1]): 237 nM

CCCOC(=O)c1cccc(O)c1N
EC50 (HT-1080 [1]): 302 nM
Activity [2]: Active
inhibition (HT-1080 [3]): Active

Nc1c(O)cccc1-c1nnc(SCc2ccc(F)cc2)o1
EC50 (HT-1080 [1]): 348 nM

N#Cc1cccc(/C=N/NC(=O)c2cccc(O)c2N)c1
EC50 (HT-1080 [1]): 727 nM

Nc1c(O)cccc1C(=O)N/N=C/c1ccccn1
EC50 (HT-1080 [1]): 191 nM

Nc1c(O)cccc1-c1nc2ccccc2[nH]1
EC50 (HT-1080 [1]): 263 nM

Nc1c(O)cccc1-c1nnc(SCc2ccccc2)o1
EC50 (HT-1080 [1]): 238 nM

Nc1c(O)cccc1C(=O)N/N=C/c1ccc[nH]1
EC50 (HT-1080 [1]): 343 nM

Nc1c(O)cccc1-c1nnc(SCC(=O)O)o1
EC50 (HT-1080 [1]): > 1000 nM

CCOC(=O)c1cccc(O)c1N
inhibition (HT-1080 [1]): Dose-Dependent Effect
EC50 (HT-1080 [1]): 127 nM

CSc1nnc(-c2cccc(O)c2N)o1
EC50 (HT-1080 [1]): 99.2 nM

Nc1c(O)cccc1C(=O)N/N=C/c1ccc(C(=O)O)cc1
EC50 (HT-1080 [1]): > 1000 nM

Nc1c(O)cccc1-c1nc2cc(Cl)c(Cl)cc2[nH]1
EC50 (HT-1080 [1]): 293 nM

COc1ccc(CSc2nnc(-c3cccc(O)c3N)o2)cc1
EC50 (HT-1080 [1]): 177 nM

N#Cc1ccc(CSc2nnc(-c3cccc(O)c3N)o2)cc1
EC50 (HT-1080 [1]): 528 nM

Nc1c(O)cccc1-c1nnc(SCc2ccc([N+](=O)[O-])cc2)o1
EC50 (HT-1080 [1]): 871 nM

Nc1c(O)cccc1C(=O)N/N=C/c1ccc([N+](=O)[O-])cc1
EC50 (HT-1080 [1]): 649 nM

Nc1c(O)cccc1C(=O)N/N=C/c1ccccc1
EC50 (HT-1080 [1]): 274 nM
